Assay results from US20240180895A1, “USE OF KAPPA OPIOID RECEPTOR AGONISTS TO TREAT CARDIOVASCULAR DISEASE” (Board of Supervisors of Louisiana State University and …, priority 2021, published 2024).

Key:
Type in all cases: in vivo, rat
Sprague-Dawley rats = assay: Prevention of diuretic resistance to twice daily furosemide by nalfurafine, 5-hour urine (FIG. 15); conditions: nalfurafine 10 μg/kg IP added to furosemide 20 mg/kg twice daily
Procedure: Male Sprague-Dawley rats were placed in individual metabolic cages in a room with 12-hour automatic light on/off control and allowed tap water and rodent chow ad libitum. Over the next two (2) days (control period), rats were administered vehicle (5% NaOH; 1 M PBS, IP) in the morning (9:00 am) and afternoon (2:00 pm) of each day, with urine collected for 5-hours starting immediately after the first injection. […] This was repeated for 4 consecutive days (experimental period).

[1] = test system: conscious Sprague-Dawley rats; assay: Metabolic cage renal excretory studies, oral gavage (Example 3)
Procedure: (§1) Animals: Male Sprague-Dawley (SD) rats (Envigo Labs, Indianapolis, IN), 300-350 g, were individually housed under a 12 h light-dark cycle and allowed tap water and standard rodent diet ad libitum. Rats were randomly assigned to experimental groups for all acute and subacute studies. All procedures were approved by the Louisiana State University Health Sciences Center Institutional Animal Care and Use Committee and conducted in accordance with the National Institutes of Health guidelines for the care and use of animals.
Metabolic Cage Renal Excretory Studies: Rats were placed in metabolic cages (model 18cv, Fenco, Cataumet, MA) for 2 hours to allow for acclimation and voiding of residual urine. Following the acclimation period, rats were volume loaded with 20 cc kg^−1 drug or vehicle (isotonic saline) via oral gavage. Urines were collected each hour over a 5-hour period. Following completion of the study rats were returned to their home cages. […] These points are marked on the figures with number of measurements in parentheses.
(§2) Experimental Design and Analysis: All results are expressed as mean±SEM. […] Means between groups for total urine output, Na^+ concentration, K^+ concentration, and urine osmolality were compared using a Student's t-test. Statistical significance was characterized as P<0.05. Statistics were carried out using Prism 7.05 software (GraphPad Software, Inc., San Diego, CA) and IBM SPSS Statistics (IBM, Armonk, NY).

[2] = test system: conscious Sprague-Dawley rats; assay: Acute cardiovascular and renal excretory studies, i.v. bolus (Example 3)
Procedure: as §1
Surgical Procedures: Aseptic technique was followed for all surgical procedures. On the morning of the experiment, rats were anesthetized with and maintained under inhaled 2% isoflurane, and polyethylene catheters (PE50; BD Diagnostics, Sparks, MD) were surgically inserted into the left femoral vein and left femoral artery for the infusion of saline and/or drug administration and the recording of arterial blood pressure, respectively. Subsequently, a suprapubic incision was made and a flanged polyethylene catheter (PE240; BD Diagnostics, Sparks, MD) was inserted into the bladder, exteriorized, and sutured to surrounding muscle and skin. Rats were then placed in an elevated restrainer (Krowicki & Kapusta, 2011) to recover from surgery and allow collection of urine. When acute experimental protocols were completed, rats were anesthetized via isoflurane and decapitated.
Acute Cardiovascular and Renal Excretory Studies: Following surgery, rats received an i.v. infusion of isotonic saline at 55 μL min^−1 throughout the duration of the experiment and were allowed 4-6 hours to recover from anesthesia. Arterial catheters were connected to a pressure transducer (MLT0670, ADInstruments, Sydney, Australia), which was connected to Powerlab 8/30 (ADInstruments) for recording of pulsatile and mean arterial blood pressure (MAP) and heart rate (HR). Blood pressure and HR were visualized using LabChart software (v8.1.5; ADInstruments). […] Following this control period, drug or vehicle (isotonic saline) was injected into the femoral vein catheter at a volume of 2 cc kg^−1, and urines were collected in 10 minute periods for a span of 90 minutes. […] All groups are n=6. Urine volume was measured gravimetrically, urine sodium and potassium concentrations were measured using flame photometry (model 943; Instrumentation Laboratories, Lexington, MA), and urine osmolality was measured using a vapor pressure osmometer (model 5600; WESCOR, Logan, UT).
as §2

[3] = oral gavage, cumulative 5-hour urine, same doses, mean±SEM
[4] = i.v. bolus, cumulative 90-min urine, same doses, mean±SEM

CN(C(=O)/C=C/c1ccoc1)[C@@H]1CC[C@@]2(O)[C@H]3Cc4ccc(O)c5c4[C@@]2(CCN3CC2CC2)[C@H]1O5 [nalfurafine, Nalfurafine]
Effect on diuretic resistance to furosemide (Sprague-Dawley rats): prevents the diuretic resistance | Time of peak diuresis ([1]; after oral gavage 150 μg kg−1): 2 h | Potassium concentration [K+] in cumulative urine [1, 3]: 14.55±1.46 μeq ml^−1 | Sodium concentration [Na+] in cumulative urine [1, 3]: 16.92±1.45 μeq ml^−1 | Total urine output ([1]; oral gavage, cumulative urine of 5-hour protocol, nalfurafine 150 μg kg−1, furosemide 50 mg kg−1, HCTZ 5 mg kg−1, amiloride 5 mg kg−1, mean±SEM, n=6): 14.55 ± 0.57 mL | Duration of the increase in urine flow rate above control ([2]; after i.v. bolus): 50 min | Time of peak diuresis (urine flow rate) ([2]; after i.v. bolus): 30 min | Time of peak antikaliuresis ([2]; after i.v. bolus 5 μg kg−1): 50 min | Time of peak antinatriuresis ([2]; after i.v. bolus 5 μg kg−1): 40 min | Effect on heart rate (HR) ([2]; i.v. bolus, 90-min protocol): did not change HR | Potassium concentration [K+] in cumulative urine [2, 4]: 4.51±0.68 μeq ml^−1 | Sodium concentration [Na+] in cumulative urine [2, 4]: 43.59±5.71 μeq ml^−1 | Urine osmolality [2, 4]: 158.7 ± 16.78 mmol/kg | Mean arterial pressure (MAP), peak Δ ([2]; i.v. bolus, peak change vs group control value, time of peak 40 to 90 min as printed): −11 mmHg | Decrease in MAP ([2]; i.v. nalfurafine, as summarised in the discussion): ~10 mmHg
